Test: Solubility of the photoinitiator in frequently used organic solvents
Assay type: physicochemical
Details: for Solubility in 3-MBA: solvent 3-methoxybutyl acetate (MBA); for Solubility in CH: solvent cyclohexanone (CH); for Solubility in DPM: solvent dipropylene glycol methyl ether (DPM); for Solubility in EEP: solvent ethyl-3-ethoxy propionate (EEP); for Solubility in PGMEA: solvent propylene glycol methyl ether acetate (PGMEA)
Protocol: For the comparison of the solubility of the compound that comprises oxime ester, in conjunction with Irgacure OXE-02 (Comparative Example 1) of Ciba Specialty Chemical, the solubilities of the compounds of Examples were measured in respects to the solvents that were frequently used, such as propylene glycol methyl ether acetate (PGMEA), dipropylene glycol methyl ether (DPM), 3-methoxybutyl acetate (MBA), ethyl-3-ethoxy propionate (EEP), and cyclohexanone (CH). The solubility was measured on the basis of how many grams of the photoinitiator were dissolved in 100 g of the solvent, and the results are described in the following Table 1.

CCn1c2ccc(C(=O)c3ccccc3C)cc2c2cc(/C(C)=N/OC(C)=O)ccc21 [Comparative Example 1, reference compound]
Solubility in 3-MBA: 10 grams in 100 g of the solvent
Solubility in CH: 40 grams in 100 g of the solvent
Solubility in DPM: 5 grams in 100 g of the solvent
Solubility in EEP: 10 grams in 100 g of the solvent
Solubility in PGMEA: 12 grams in 100 g of the solvent

CC(=O)O/N=C(\CC(c1ccc(C(C/C(=N\OC(C)=O)c2ccccc2)N(OC(C)=O)C(C)=O)cc1)N(OC(C)=O)C(C)=O)c1ccccc1 (stereo not drawn) [Example 1]
Solubility in 3-MBA: 50 or more grams in 100 g of the solvent
Solubility in CH: 100 or more grams in 100 g of the solvent
Solubility in DPM: 50 or more grams in 100 g of the solvent
Solubility in EEP: 50 or more grams in 100 g of the solvent
Solubility in PGMEA: 100 or more grams in 100 g of the solvent

CSc1ccc(C(C/C(=N\OC(C)=O)c2ccc(/C(CC(c3ccc(SC)cc3)N(OC(C)=O)C(C)=O)=N/OC(C)=O)cc2)N(OC(C)=O)C(C)=O)cc1 (stereo not drawn) [Example 2]
Solubility in 3-MBA: 50 or more grams in 100 g of the solvent
Solubility in CH: 100 or more grams in 100 g of the solvent
Solubility in DPM: 50 or more grams in 100 g of the solvent
Solubility in EEP: 50 or more grams in 100 g of the solvent
Solubility in PGMEA: 100 or more grams in 100 g of the solvent

CCn1c2ccc(/C(CC(c3ccccc3)N(OC(C)=O)C(C)=O)=N/OC(C)=O)cc2c2cc(/C(CC(c3ccccc3)N(OC(C)=O)C(C)=O)=N/OC(C)=O)ccc21 (stereo not drawn) [Example 3]
Solubility in 3-MBA: 50 or more grams in 100 g of the solvent
Solubility in CH: 100 or more grams in 100 g of the solvent
Solubility in DPM: 50 or more grams in 100 g of the solvent
Solubility in EEP: 50 or more grams in 100 g of the solvent
Solubility in PGMEA: 100 or more grams in 100 g of the solvent

CCn1c2ccc(/C(CC(c3cccs3)N(OC(C)=O)C(C)=O)=N/OC(C)=O)cc2c2cc(/C(CC(c3cccs3)N(OC(C)=O)C(C)=O)=N/OC(C)=O)ccc21 (stereo not drawn) [Example 4]
Solubility in 3-MBA: 30 grams in 100 g of the solvent
Solubility in CH: 100 or more grams in 100 g of the solvent
Solubility in DPM: 25 grams in 100 g of the solvent
Solubility in EEP: 30 grams in 100 g of the solvent
Solubility in PGMEA: 100 or more grams in 100 g of the solvent

CCn1c2ccc(/C(CC(c3ccc(SC)cc3)N(OC(C)=O)C(C)=O)=N/OC(C)=O)cc2c2cc(/C(CC(c3ccc(SC)cc3)N(OC(C)=O)C(C)=O)=N/OC(C)=O)ccc21 (stereo not drawn) [Example 5]
Solubility in 3-MBA: 50 or more grams in 100 g of the solvent
Solubility in CH: 100 or more grams in 100 g of the solvent
Solubility in DPM: 50 or more grams in 100 g of the solvent
Solubility in EEP: 50 or more grams in 100 g of the solvent
Solubility in PGMEA: 100 or more grams in 100 g of the solvent
